The text below walks through data of ChEMBL document CHEMBL3301361, “Experimental in vitro DMPK and physicochemical data on a set of publicly disclosed compounds”.

This data set is described as follows: physchem. The settings on record: octan-1-ol/water, pH 7.4, LogD7.4.
Turning to `CCN(CCCOCCOCCc1ccccc1)CCc1ccc(O)c2nc(O)sc12`, the logD (as a rule, the decadic logarithm of the distribution of all forms, ionised or not, between an organic phase and buffer at a given pH) was 2.45.
In turn, `Cc1cc(C)cc(CCOCCS(=O)(=O)NCCNCCc2ccc(O)c3nc(O)sc23)c1` showed a pH-dependent lipophilicity (logD) of 2.45.
For the compound `CC(C)C(NC(=O)Cn1c(-c2ccc(F)cc2)ncc(NC(=O)OCc2ccccc2)c1=O)C(=O)C(F)(F)F` (stereo not given), the log distribution coefficient (logD) was found to be 2.47.
The compound `COc1cc(OC)cc(-c2ccc(NC(=O)OCc3ccccc3)c(=O)n2CC(=O)NC(C(=O)C(F)(F)F)C(C)C)c1` (stereo not given) returned a logD of 2.26.
`Cc1cc(COC(=O)Nc2ccc(-c3ccccc3)n(CC(=O)NC(C(=O)C(F)(F)F)C(C)C)c2=O)cc(C)n1` (stereo not given) had a log distribution coefficient (logD) of 2.38.
Turning to `CC(=O)Nc1cccc(S(=O)(=O)Nc2ccc(-c3ccccc3)n(CC(=O)NC(C(=O)C(F)(F)F)C(C)C)c2=O)c1` (stereo not given), the logD was determined as 2.43.
Consider `COc1ccc(CCN2CN=C(SCc3ccc(Cl)cc3)NC2)cc1OC`, for which the pH-dependent lipophilicity (logD) was 2.41.
The figure for `Cc1cc2n[nH]c(=O)n2c2cc(-c3ccncc3)ccc12` is 2.29; for `CC1CCN(C(=O)c2scc3c2OCCO3)CC1` it is 2.26.
The figure for `O=C(COc1ccccc1O)NC1CCCC1` is 2.31; for `Nc1nc(N)nc(-c2cccc(C(F)(F)F)c2)n1` it is 2.4; for `Fc1cc2[nH]cnc2cc1Cl` it is 2.35.
For the compound `COc1cc(-c2nnc(S)n2-c2cccc(C(F)(F)F)c2)cc(OC)c1OC`, the logD worked out at 2.27.
Compound `Cc1cc(Nc2ccccc2)n(CCC#N)n1` displayed a logD of 2.3.
The value for `c1cc2c(cc1-c1cnc3n1CCC3)OCCO2` was 2.33; that for `COc1cc(CNc2nc3ccccc3[nH]2)cc(OC)c1OC` was 2.36.
On to `CC1(C)C(=O)Nc2ccccc21`, for which the logD is 2.3.
In the case of `CCCc1c(OCc2ccc(C(=O)O)c(Br)c2)ccc(C(C)=O)c1O`, the logD turned out to be 2.3.
The value for `Cn1cnc2cc(OC(=O)c3ccccc3)cnc21` was 2.4; that for `CC(=O)N1CCOc2nc(OCc3ccccc3)ccc21` was 2.4.
For the compound `O=C1CCOc2nc(COc3ccccc3)ccc21`, the logD worked out at 2.3.
The value for `CS(=O)(=O)N1CCOc2cc(COc3ccccc3)cnc21` was 2.4; that for `COc1cc2nnc(C(N)=O)c(Nc3ccc(C)cc3F)c2cc1N1CCN(C)CC1` was 2.36; that for `COc1cc2nnc(C(N)=O)c(Nc3cccc(Cl)c3F)c2cc1N1CCN(C)CC1` was 2.35.
`COc1cc(F)ccc1-c1cncc(CNC2CCCC2)c1` returned a logD of 2.29.
Regarding `COc1cc(F)ccc1-c1cccc(CNC2CCCC2)c1`, the logD stood at 2.29.
The value for `O=c1[nH]c2c(O)ccc([C@@H](O)CNCCCSCCOCCc3ccccc3)c2s1` was 2.3.
Consider `O=c1[nH]c2c(O)ccc([C@@H](O)CNCCCOCCOCCc3cccc4ccccc34)c2s1`, for which the logD was found to be 2.28.
Compound `COc1cc(N2CCN(C(C)=O)CC2)ccc1Nc1ncc(Cl)c(-c2cnc3cc(C#N)ccn23)n1` showed a logD of 2.3.
`CCC(c1nc2ccsc2c(=O)n1Cc1ccc(Cl)cc1)N(CCCN)C(=O)c1ccc(C)cc1` (stereo not given) displayed a logD of 2.32.
Take `COc1cccc(C(=O)NCCCOc2cccc3ccc(N)nc23)c1`: the logD worked out at 2.46.
The figure for `NC(=O)c1ccc(=O)n(Cc2ccc(Cl)cc2Cl)c1` is 2.36; for `COc1ccc(CN2C(=O)CCC2(C)C(=O)NC2CCCCC2)c(OC)c1` (stereo not given) it is 2.38; for `O=C1Nc2ccc(S(=O)(=O)N3CCC[C@H]3CNc3ccccc3)cc2C1=O` it is 2.4.
For `CSc1ccc(OCc2ccccc2)c(/C=C/c2ccc(C(=O)O)cn2)c1`, the logD stood at 2.45.
Take `O=c1[nH]c2c(O)ccc([C@@H](O)CNCCc3ccc(CNCCc4c(Cl)cccc4Cl)cc3)c2s1`: the logD amounted to 2.3.
The figure for `CC(Cc1cccc(CNCCc2c(Cl)cccc2Cl)c1)NC[C@H](O)c1ccc(O)c2[nH]c(=O)sc12` (stereo not given in full) is 2.41; for `Cc1ccccc1Cn1ccn2c(=O)cc(N3CCOCC3)nc12` it is 2.3; for `CNc1c(Br)cnc2[nH]c(-c3ccc(O)cc3)nc12` it is 2.47.
The value for `Nc1cc2n[nH]c(=O)n2c2cc(-c3ccc[nH]3)ccc12` was 2.3; that for `Nc1cc2n[nH]c(=O)n2c2cc(-c3ccco3)ccc12` was 2.48.
The compound `O=C(Nc1ccc(N2CCOCC2)cn1)c1nnc(Nc2ccccc2F)o1` yielded a logD of 2.4. This logD and that of the compound before are within 0.2 log units of each other.
On to `Cc1ccc(-c2ccc(N)nn2)cc1NC(=O)c1ccc(OCc2ccccn2)cc1`, for which the logD was determined as 2.47.
`Cc1ccc(-c2cc(C(F)(F)F)n[nH]2)cc1NC(=O)c1ccc(OCc2ccccn2)cc1` gave a pH-dependent lipophilicity (logD) of 2.44. This logD and that of the compound before are within 0.2 log units of each other.
`N#Cc1cnn2c(N)cc(-c3cccs3)nc12`: the pH-dependent lipophilicity (logD) amounted to 2.3.
Take `COc1cc2c(Nc3ncc(NC(=O)c4ccccc4)cn3)ncnc2cc1OCCCN1CCOCC1`: the logD came out at 2.32.
The value for `Nc1nc(N)c(-c2ccc(NC(=O)C3CC3)cc2)c(COCc2ccccc2)n1` was 2.46; that for `CCCSc1ncccc1C(=O)N[C@@H]1[C@@H]2CC3C[C@H]1C[C@@](O)(C3)C2` was 2.27; that for `CCCNc1nc(N2CCC[C@@H](CC(=O)O)C2)ccc1C(=O)NC1CCCCC1` was 2.33.
The value for `CCCN(C)c1nc(N2CCC[C@@H](CC(=O)O)C2)ccc1C(=O)NC1CCCCC1` was 2.28; that for `O=C(c1ccc(-c2nc(=O)o[nH]2)cc1)N1CCC(N2CCC(Oc3ccc(Cl)c(Cl)c3)CC2)CC1` was 2.24.
The value for `COCCNS(=O)(=O)c1ccc(-c2cnc(N)c(C(=O)Nc3cccnc3)n2)cc1` was 2.26; that for `Cc1cc(Cl)ccc1OC1CCN(C[C@H](O)CNC(=O)c2c[nH]c(=O)c3cc(S(C)(=O)=O)ccc23)CC1` was 2.42.
In the case of `CS(=O)(=O)c1ccccc1C(=O)NC[C@@H](O)CN1CCC(Oc2ccc(Cl)c(Cl)c2)CC1`, the logD worked out at 2.34.
Take `CCCc1cc(OCc2ccccc2)cc(=O)n1Cc1ccc(-c2ccccc2-c2nn[nH]n2)cc1`: the logD was 2.4.
For the compound `CN(C)c1ccnc2sc3c(=O)n(-c4ccccc4)cnc3c12`, the logD came to 2.34.
Take `NC1(C(=O)N[C@@H](CCN2CCCCC2)c2ccc(Cl)cc2)CCN(c2ncnc3[nH]ccc23)CC1`: the logD was determined as 2.4. The logD values of the last two compounds are within 0.2 log units of each other.
With `CN(C)C(=O)CC(NC(=O)C1(N)CCN(c2ncnc3[nH]ccc23)CC1)c1ccc(Cl)cc1` (stereo not given), the logD turned out to be 2.4.
`CC(=O)NCC(NC(=O)C1(N)CCN(c2ncnc3[nH]ccc23)CC1)c1ccc(Cl)cc1` (stereo not given) displayed a logD of 2.4.
`NC1(C(=O)NC(CO)c2ccc(Cl)cc2)CCN(c2ncnc3[nH]ccc23)CC1` (stereo not given): the logD was 2.4.
The value for `CC(NC(=O)C1(N)CCN(c2ncnc3[nH]ccc23)CC1)c1ccc(F)cc1` (stereo not given) was 2.4; that for `CN1CC=CCC(c2cc3ccccc3o2)C1` (stereo not given) was 2.47.
The compound `OCCN1CC=CC[C@H](c2ccc(Cl)c(Cl)c2)C1` came in with a logD of 2.37.
The value for `O=C(CN1C(=O)C(NC(=O)c2cc3cc(Cl)sc3[nH]2)Cc2ccccc21)NO` (stereo not given) was 2.4; that for `Cc1cn([C@H]2CCCN(S(=O)(=O)c3ccc(O)c(Oc4cccc(C(F)(F)F)c4)c3)C2)c(=O)[nH]c1=O` was 2.27.
`Cc1ccn2c(-c3ccnc(N)n3)c(C)nc2c1` registered a logD of 2.39.
As for `CCOc1ccccc1-c1ccc(-c2nc3ccc(F)cc3c(C(=O)NCCOCCN)c2C)cc1`, the logD worked out at 2.46.
For the compound `O=C(NCCN1CCCC1)c1ccc(Nc2ncc3cc(-c4ccncc4)ccc3n2)cc1`, the logD was found to be 2.39.
Compound `Clc1ccc2[nH]ncc2c1` gave a log distribution coefficient (logD) of 2.44.
On to `Fc1ccc2cn[nH]c2c1`, for which the logD amounted to 2.3.
In turn, `Clc1cccc2cn[nH]c12` gave a logD of 2.33.
Turning to `COc1ccc2c(C)cc(N[C@H]3CCC[C@H](NCc4ccsc4)C3)nc2c1`, the logD is 2.46.
The compound `COc1cc(OC2CCN(C)CC2)c2c(Nc3cccc4c3OCCO4)ncnc2c1` registered a logD of 2.26.
In turn, `Fc1ccc(-n2cc(C3CCNCC3)c3cc(Cl)ccc32)cc1` showed a logD of 2.4.
The figure for `CC(C)C(NC(=O)Cn1c(-c2ccccc2)ccc(NC(=O)OCc2ccncc2)c1=O)C(=O)C(F)(F)F` (stereo not given) is 2.41.
`O=C1c2ccc(O)cc2C(=O)N1c1ccccc1` had a logD of 2.3.
`CC(C)C(NC(=O)Cn1c(-c2ccccc2)ccc(NS(=O)(=O)c2ccccc2)c1=O)C(=O)C(F)(F)F` (stereo not given): the logD came out at 2.26.
The value for `CCNc1ccc(-c2ccccc2)n(CC(=O)NC(C(=O)C(F)(F)F)C(C)C)c1=O` (stereo not given) was 2.37; that for `O=C(c1ccc(CCC(COc2ccc(-c3cccc([N+](=O)[O-])c3)cc2)N2C(=O)CCCC2=O)cc1)N1CCCC1` (stereo not given) was 2.31.
In the case of `NC(=O)c1cc(O)cc2nc(-c3ccc(O)cc3)oc12`, the logD was found to be 2.3. The logD values of the last two compounds are within 0.2 log units of each other.
The figure for `Cc1ccc2c(-c3ccnc4cc(Cl)ccc34)c(C)n(CC(=O)O)c2c1` is 2.41.
In turn, `CC(C)c1nnc2ccc(-c3ocnc3-c3cc(F)ccc3F)cn12` showed a logD of 2.44.
Turning to `COc1ccc2nc(N[C@H]3CCC[C@H](NCc4ccsc4)C3)cc(C)c2c1`, the log distribution coefficient (logD) was determined as 2.41.
As to `CN(CCOc1ccc(C[C@H](Nc2ccccc2C(=O)c2ccccc2)C(=O)O)cc1)c1nc2ccccc2o1`, the pH-dependent lipophilicity (logD) was 2.47.
The value for `O=C1C(=O)c2cc([N+](=O)[O-])ccc2-c2ccccc21` was 2.42; that for `CC(C)[C@@H](CO)NS(=O)(=O)c1ccc(Cl)s1` was 2.3.
The compound `Cc1ncc(-c2nc(Nc3ccc(C(=O)N4CC[C@@H](N(C)C)C4)cc3)ncc2F)n1C(C)C` displayed a logD of 2.36.
The value for `Cc1ncc(-c2nc(Nc3ccc(C(=O)NCCN(C)C)c(F)c3)ncc2F)n1C(C)C` was 2.26; that for `Cc1ncc(-c2ccnc(Nc3ccc(C(N)=O)cc3)n2)n1C(C)C` was 2.39; that for `Cc1ncc(-c2ccnc(Nc3ccc(C(=O)N(C)C)cc3)n2)n1C(C)C` was 2.45.
As for `O=C(c1cccc(Cc2n[nH]c(=O)c3ccccc23)c1)N1CCN(c2ccccn2)CC1`, the logD worked out at 2.36.
Regarding `CS(=O)(=O)Nc1cc(Nc2nccc(Nc3c(Cl)ccc4c3OCO4)n2)cc(C(N)=O)c1`, the logD was 2.28.
Compound `Nc1ccc2c(c1)-c1ccccc1C(=O)C2=O` yielded a logD of 2.39.
As to `c1ccc(-c2cc(NCCCCCCCCNc3cc(-c4ccccc4)nc4ccccc34)c3ccccc3n2)cc1`, the log distribution coefficient (logD) came out at 2.27.
`CC(C)(C(N)=O)C(=O)NCCCNc1nc(Nc2cccc(NC(=O)N3CCCC3)c2)ncc1Br` came in with a logD of 2.32.
